Among the test systems are NCI-H23 lung; OVCAR-4 ovarian; HOP-62 NSCLC; UO-31 renal; CAKI-1 renal; UACC-62 melanoma; OVCAR-8 ovarian; EKVX NSCLC; UACC-257 melanoma; COLO 205 colon.
Common to all, as to assay: growth of human tumour cells (NCI), 48 h

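Where inhibition never reached the appropriate level, the endpoint shown equals the highest concentration tested. Otherwise, values were interpolated linearly from a five-concentration, 48-hour dose response in 96-well plates. TGI is the concentration that stops growth completely.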

The record followed here is PubChem BioAssay (NCI).

Consider `CC(=O)O[C@H]1C(=O)[C@@]2(C)[C@H]([C@H](OC(=O)c3ccccc3)[C@]3(O)C[C@H](OC(=O)[C@H](O)[C@@H](NC(=O)c4ccco4)c4ccccc4)C(C)=C1C3(C)C)[C@]1(OC(C)=O)CO[C@@H]1C[C@@H]2O`, for which the TGI in the assay with NCI-H23 lung, in the assay on OVCAR-4 ovarian, in the assay with HOP-62 NSCLC, with UO-31 renal, in the assay with CAKI-1 renal and in the assay with UACC-62 melanoma was > 12.5 µM each time. Also, the TGI in the assay on OVCAR-8 ovarian and in the assay on EKVX NSCLC was > 12.5 µM throughout.
With `CC1=CC[C@@]2(C)CC[C@](O)(C(C)C)C2C(OC(=O)c2ccccc2)C1` (some centres not stated), the TGI came to 38.9 µM in the assay with NCI-H23 lung; 35.1 µM in the assay with UACC-257 melanoma; 62.2 µM in the assay on OVCAR-4 ovarian; 33.7 µM in the assay on HOP-62 NSCLC; 43 µM with COLO 205 colon; 32.6 µM in the assay on UO-31 renal. The TGI in the assay on CAKI-1 renal stood at 44.9 µM; in the assay on OVCAR-8 ovarian, 37.5 µM; in the assay on EKVX NSCLC, 32.3 µM.
With `S=c1ncc2c([nH]1)C1c3ccccc3C2c2ccccc21`, the TGI in the assay with NCI-H23 lung, in the assay with OVCAR-4 ovarian, in the assay on HOP-62 NSCLC, in the assay on COLO 205 colon, in the assay with UO-31 renal and in the assay with UACC-62 melanoma was > 100 µM each time. Besides, the TGI in the assay with OVCAR-8 ovarian and with EKVX NSCLC was > 100 µM throughout.
With `CC(C)C1NC(=O)CC(c2ccccc2)N(N=O)C1c1ccccc1` (configuration not stated), the TGI with NCI-H23 lung, with UACC-257 melanoma, in the assay with OVCAR-4 ovarian, in the assay on HOP-62 NSCLC, with COLO 205 colon and in the assay on UO-31 renal was > 100 µM each time. In addition, the TGI in the assay on CAKI-1 renal, in the assay on UACC-62 melanoma, with OVCAR-8 ovarian and with EKVX NSCLC was > 100 µM throughout.
For `Cn1c2ccccc2c(=O)c2c(O)cc3c(c21)C=CC(C)(C)O3`, the TGI with NCI-H23 lung, with UACC-257 melanoma, with OVCAR-4 ovarian, in the assay on HOP-62 NSCLC, in the assay on COLO 205 colon and with UO-31 renal was > 25 µM each time. The TGI was > 10.1 µM in the assay with CAKI-1 renal, > 25 µM in the assay on UACC-62 melanoma and > 25 µM in the assay on EKVX NSCLC.
As to `O=C(c1ccc(Cl)cc1)c1ccc(OCCCOc2ccc(C(=O)c3ccc(Cl)cc3)cc2Cl)c(Cl)c1`, the TGI in the assay on NCI-H23 lung, in the assay with UACC-257 melanoma, in the assay with OVCAR-4 ovarian, in the assay on HOP-62 NSCLC, in the assay with COLO 205 colon and with CAKI-1 renal was > 100 µM in each case. Also, the TGI in the assay on UACC-62 melanoma, with OVCAR-8 ovarian and in the assay with EKVX NSCLC was > 100 µM throughout.
For `COc1cc(C2(c3ncc[nH]3)SSSCC2O)ccc1O` (configuration not stated), the TGI with NCI-H23 lung is > 100 µM; in the assay with UACC-257 melanoma, 28.5 µM; in the assay with OVCAR-4 ovarian, > 63.7 µM; with HOP-62 NSCLC it was > 100 µM; in the assay with COLO 205 colon, > 59.8 µM; in the assay on UO-31 renal, > 100 µM. For the same compound, the TGI in the assay on CAKI-1 renal was > 100 µM; in the assay on UACC-62 melanoma, > 51.2 µM; in the assay with OVCAR-8 ovarian it was > 100 µM; in the assay with EKVX NSCLC, > 100 µM.
Take `COc1nc(N)c(NC(C)=O)c(=O)n1C`: the TGI in the assay on NCI-H23 lung, in the assay with UACC-257 melanoma, with OVCAR-4 ovarian, with COLO 205 colon, in the assay on UO-31 renal and with CAKI-1 renal was > 100 µM in each case. Moreover, the TGI in the assay on OVCAR-8 ovarian and in the assay on EKVX NSCLC was > 100 µM each time.
As for `CC1CCC2CC(=O)OC([C@@H]3C(=O)O[C@@H](C4=CCCC4)C4C(C)CCC43)C12` (some centres not stated), the TGI in the assay on NCI-H23 lung, in the assay on UACC-257 melanoma, with HOP-62 NSCLC, in the assay on COLO 205 colon, in the assay with UO-31 renal and in the assay with CAKI-1 renal was > 100 µM in each case. Besides, the TGI in the assay on UACC-62 melanoma, in the assay with OVCAR-8 ovarian and in the assay with EKVX NSCLC was > 100 µM in each case.
With `C/C=C1\CN2CCc3c([nH]c4ccccc34)C2CC1CCO` (configuration not stated), the TGI in the assay with NCI-H23 lung, in the assay with UACC-257 melanoma, with OVCAR-4 ovarian, with HOP-62 NSCLC, in the assay on COLO 205 colon and with UO-31 renal was > 100 µM in each case. Further, the TGI in the assay on OVCAR-8 ovarian and in the assay with EKVX NSCLC was > 100 µM throughout.
Consider `Fc1ccc2c3c([nH]c2c1)CCN(Cc1ccccc1)C3`, for which the TGI was 42.4 µM with NCI-H23 lung; 30.6 µM in the assay on UACC-257 melanoma; 56.1 µM in the assay with OVCAR-4 ovarian; 28.5 µM in the assay on HOP-62 NSCLC; 39.4 µM in the assay on COLO 205 colon; 25.6 µM in the assay with UO-31 renal. Besides, the TGI in the assay with UACC-62 melanoma amounted to 35.2 µM; with OVCAR-8 ovarian, 39.6 µM; in the assay with EKVX NSCLC it was 48.7 µM.
